# From patent US8598190B2, “3H-imidazo [4, 5-C] pyridine-6-carboxamides as anti-inflammatory agents” (Boehringer Ingelheim International GmbH, priority 2008, dated 2013)
# Biological target: T1, recombinant human mPGES-1 (Homo sapiens, UniProt O14684)
# T1 construct: made in house; host or cells: Rosetta E. coli (microsomal/membrane fraction)
# T1 sequence (O14684 1-152): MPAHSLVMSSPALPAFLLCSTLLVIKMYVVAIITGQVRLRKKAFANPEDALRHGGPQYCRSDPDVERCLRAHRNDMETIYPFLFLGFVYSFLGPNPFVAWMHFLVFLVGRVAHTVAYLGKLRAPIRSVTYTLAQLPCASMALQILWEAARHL
# Experiment: mPGES-1 inhibition test (microsomes, HTRF detection of PGE2)
# Format: biochemical
# Conditions: not given
# Method: Microsomes from Rosetta E. coli bacteria expressing recombinant human mPGES-1 is dissolved in 0.1 M KPi pH 7.4 buffer containing 2.5 mM GSH. 50 μl of the enzyme is subsequently dispensed in a 384-well plate. 0.5 μl of the inhibitor dissolved in DMSO at is thereafter added to each well and incubated for 25 minutes at room temperature.
# Subsequently, 2 μl of PGH2 dissolved in an appropriate solvent is added to each well and after one minute the acidified stop solution containing FeCl2 is added. 4 μl of the total volume is transferred to a separate plate and diluted 750-fold in two separate steps before HTRF detection of PGE2.
# The HTRf detection is performed by the use of a commercially available kit from CisBio essentially according to the manufacturer's protocol. Briefly, 10 μl of the diluted sample is transferred to a white 384-well plate. 5 μl of d2 and 5 μl Eu3+-Cryptate labeled anti-PGE2 is added to each well containing samples by the use of a Multidrop. The plate is covered with a plastic self-adhesive film, centrifuged at 1200 rpm for 1 minute and subsequently stored at +4° C. over night.
# After over night incubation the fluorescence is measured by the use of an appropriate microplate reader. The fluorescence of europium cryptate, and d2 are measured using the following excitation and emission wavelength, europium cryptate: λmax^ex=307 nm, λmax^em=620 nm and d2: λmax^ex=620 nm, λmax^em=665 nm), respectively. The extent of the specific FRET is measured as a ratio of the emission intensity at 665 nm vs. that at 620 nm. A standard curve using synthetic PGE2 is used to quantify the amount of PGE2 in unknown samples.
row,Structure (SMILES),inhibition at 10 µM
1,"CC1(C)CCC(NC(=O)c2cc3nc(Nc4c(Cl)cccc4Cl)[nH]c3cn2)CC1 [Example 83, 2-(2,6-Dichloro-phenylamino)-3H-imidazo[4,5-c]pyridine-6-carboxylic acid (4,4-dimethyl-cyclohexyl)-amide]",100%
2,"O=C(NC1CCCCC1)c1cc2[nH]c(Nc3c(Cl)cccc3Cl)nc2cn1 [Example 137, 2-(2,6-Dichloro-phenylamino)-3H-imidazo[4,5-c]pyridine-6-carboxylic acid-cyclohexyl-amide]",100%
3,"Cn1c(Nc2c(F)cccc2Cl)nc2cc(C(=O)Nc3cc(C(F)(F)F)ccn3)ncc21 [Example 360, 2-(2-Chloro-6-fluoro-phenylamino)-3-methyl-N-(4-trifluoromethyl-pyridin-2-yl)-3-H-imidazo[4,5-c]pyridine-6-carboxamide]",100%
4,"Cn1c(Nc2c(F)cccc2Cl)nc2cc(C(=O)Nc3ccc(Br)cc3)ncc21 [Example 361, N-(4-Bromophenyl)-2-(2-chloro-6-fluoro-phenylamino)-3-methyl-3H-imidazo[4,5-c]pyridine-6-carboxamide]",100%
5,"Cn1c(Nc2c(Cl)cccc2Cl)nc2cc(C(=O)Nc3cc(C(F)(F)F)ccn3)ncc21 [Example 364, 2-(2,6-Dichlorophenylamino)-3-methyl-N-(4-trifluoromethyl-pyridin-2-yl)-3H-imidazo[4,5-c]pyridine-6-carboxamide]",100%
6,"Cn1c(Nc2c(Cl)cccc2Cl)nc2cc(C(=O)Nc3ccc(Br)cc3)ncc21 [Example 365, N-(4-Bromophenyl)-2-(2,6-dichlorophenylamino)-3-methyl-3H-imidazo[4,5-c]pyridine-6-carboxamide]",100%
7,"O=C(Nc1cc(C(F)(F)F)ccn1)c1cc2[nH]c(Nc3c(Cl)cncc3Cl)nc2cn1 [Example 366, 2-(3,5-Dichloropyridin-4-ylamino)-N-(4-trifluoromethyl-pyridin-2-yl)-1H-imidazo[4,5-c]pyridine-6-carboxamide]",100%
8,"Cn1c(Nc2c(F)cccc2Cl)nc2cc(C(=O)NC3CCC(C)(C)CC3)ncc21 [Example 389, 2-(2-Chloro-6-fluorophenylamino)-N-(4,4-dimethylcyclohexyl)-3-methyl-3H-imidazo[4,5-c]-pyridine-6-carboxamide]",100%
9,"CC(C)(C)c1ccnc(NC(=O)c2cc3[nH]c(Nc4c(Cl)cccc4Cl)nc3cn2)c1 [Example 396, N-(4-tert.-Butyl-pyridin-2-yl)-2-(2,6-dichlorophenylamino)-1H-imidazo[4,5-c]pyridine-6-carboxamide]",100%
10,"Cn1c(Nc2c(Cl)cccc2Cl)nc2cc(C(=O)NC3CCC(C)(C)CC3)ncc21 [Example 406, 2-(2,6-Dichlorophenylamino)-N-(4,4-dimethylcyclohexyl)-3-methyl-3H-imidazo[4,5-c]pyridine-6-carboxamide]",100%

# Results, then the compound that gave them:
row,inhibition at 10 µM,Structure (SMILES)
1,100%,"O=C(Nc1cc(C(F)(F)F)ccn1)c1cc2[nH]c(Nc3c(Cl)cccc3Cl)nc2cn1 [Example 414, 2-(2,6-Dichlorophenylamino)-N-(4-trifluoromethyl-pyridin-2-yl)-1H-imidazo[4,5-c]pyridine-6-carboxamide]"
2,100%,"Cn1c(Nc2c(F)cccc2Cl)nc2cc(C(=O)NC3CCC4(CC3)CC4)ncc21 [Example 417, 2-(2-Chloro-6-fluoro-phenylamino)-3-methyl-N-(spiro[2.5]octan-6-yl)-3H-imidazo[4,5-c]pyridine-6-carboxamide]"
3,100%,"Cn1c(Nc2c(Cl)cccc2Cl)nc2cc(C(=O)N[C@H]3CC[C@H](C(F)(F)F)CC3)ncc21 [Example 424, 2-(2,6-Dichlorophenylamino)-3-methyl-N-((1r,4r)-4-trifluoromethyl-cyclohexyl)-3H-imidazo[4,5-c]pyridine-6-carboxamide]"
4,100%,"Cn1c(Nc2c(Cl)cccc2Cl)nc2cc(C(=O)NC3CCC4(CC3)CC4)ncc21 [Example 425, 2-(2,6-Dichlorophenylamino)-3-methyl-N-(spiro[2.5]octan-6-yl)-3H-imidazo[4,5-c]-pyridine-6-carboxamide]"
5,98%,"Cc1cnc(NC(=O)c2cc3[nH]c(Nc4c(Cl)cccc4Cl)nc3cn2)cc1Cl [Example 427, N-(4-Chloro-5-methyl-pyridin-2-yl)-2-(2,6-dichlorophenylamino)-1H-imidazo[4,5-c]pyridine-6-carboxamide]"
6,100%,"Cn1c(Nc2c(F)cccc2Cl)nc2cc(C(=O)N[C@H]3CC[C@H](C(F)(F)F)CC3)ncc21 [Example 431, 2-(2-Chloro-6-fluorophenylamino)-3-methyl-N-((1r,4r)-4-trifluoromethyl-cyclohexyl)-3H-imidazo[4,5-c]pyridine-6-carboxamide]"
7,100%,"O=C(Nc1cc(OC2CCCC2)ccn1)c1cc2[nH]c(Nc3c(Cl)cccc3Cl)nc2cn1 [Example 440, N-(4-(Cyclopentyloxy)pyridin-2-yl)-2-(2,6-dichlorophenylamino)-1H-imidazo[4,5-c]pyridine-6-carboxamide]"
8,100%,"Cn1c(Nc2c(F)cccc2Cl)nc2cc(C(=O)NC3CCCCC3)ncc21 [Example 444, 2-(2-Chloro-6-fluorophenylamino)-N-cyclohexyl-3-methyl-3H-imidazo[4,5-c]-pyridine-6-carboxamide]"
9,98%,"O=C(Nc1cc(C2CC2)ccn1)c1cc2[nH]c(Nc3c(Cl)cccc3Cl)nc2cn1 [Example 445, N-(4-Cyclopropylpyridin-2-yl)-2-(2,6-dichlorophenylamino)-1H-imidazo[4,5-c]-pyridine-6-carboxamide]"
10,99%,"O=C(NC1CCC2(CC1)CC2)c1cc2[nH]c(Nc3c(Cl)cccc3Cl)nc2cn1 [Example 451, 2-(2,6-Dichlorophenylamino)-N-(spiro[2.5]octan-6-yl)-1H-imidazo[4,5-c]pyridine-6-carboxamide]"
11,94%,"Cn1c(Nc2c(Cl)cccc2Cl)nc2cc(C(=O)Nc3cc(C4CC4)ccn3)ncc21 [Example 462, N-(4-Cyclopropylpyridin-2-yl)-2-(2,6-dichlorophenylamino)-3-methyl-3H-imidazo[4,5-c]pyridine-6-carboxamide]"
12,96%,"Cn1c(Nc2c(Cl)cncc2Cl)nc2cc(C(=O)Nc3ccc(Br)cc3)ncc21 [Example 472, N-(4-Bromophenyl)-2-(3,5-dichloropyridin-4-ylamino)-3-methyl-3H-imidazo[4,5-c]-pyridine-6-carboxamide]"
13,97%,"O=C(NCc1ccccc1C(F)(F)F)c1cc2[nH]c(Nc3c(Cl)cccc3Cl)nc2cn1 [Example 477, 2-(2,6-Dichlorophenylamino)-N-(2-trifluoromethyl-benzyl)-1H-imidazo[4,5-c]pyridine-6-carboxamide]"
14,100%,"Cn1c(Nc2c(Cl)cncc2Cl)nc2cc(C(=O)NC3CCC(C)(C)CC3)ncc21 [Example 478, 2-(3,5-Dichloropyridin-4-ylamino)-N-(4,4-dimethylcyclohexyl)-3-methyl-3H-imidazo[4,5-c]pyridine-6-carboxamide]"

# Same assay, conditions: percentage inhibition of mPGES-1 at 10 μM (unless otherwise specified)
row,% inhib.,Structure (SMILES)
1,97%,Cn1c(Nc2c(Cl)cccc2Cl)nc2cc(C(=O)Nc3ccc(Br)cc3)cnc21 [Example 463]
